Results from article PMC4025172 (Breast Cancer Research and Treatment, 2014).
Like-named read-outs stand apart in the source and are kept apart here. Marks after values point to notes of the source that are not given here.

Legend:
breast cancer = settings: retrospective cohort study in Finland, postmenopausal patients; cited from earlier work
[1] = system: E3 receptor complex / E2 receptor complex; settings: cited from earlier work
BC cells = settings: depends on concentration and duration of action; cited from earlier work
nuclear ER = settings: cited from earlier work
[2] = format: in vivo, human; settings: for AUC(0–24),C2: parameter not reliable; for AUC(0-t) / Cmax / concentration at -0.5 h / Tmax: serum, other: vaginal, 0.03 mg
[3] = cited from earlier work
[4] = cited from earlier work; remark: listed apart in the source
[5] = after 4 weeks of daily application
[6] = vaginal ring or tablets with E2, postmenopausal BC patients (no AI therapy)

C[C@]12CC[C@@H]3c4ccc(O)cc4CC[C@H]3[C@@H]1C[C@@H](O)[C@@H]2O [E3, estriol]
association with risk of BC (breast cancer): neither the use of vaginal E2 and E3 preparations nor oral E3 were associated with a risk of BC
nuclear retention time of the receptor complex [1]: < 6 h
effect on BC cells in vitro (BC cells): can stimulate
affinity to the nuclear ER as compared to E2 (nuclear ER): 10 times lower
t max,C2 ([2]; Visit C2 (day 28), maximum): 8.0 h
AUC(0–24),C2 ([2]; Visit C2 (day 28), maximum): 0.457 ng·h/mL
t max,C2 ([2]; Visit C2 (day 28), minimum): 4.0 h
C max,C2 ([2]; Visit C2 (day 28), minimum, LLOQ E3 10.00 pg/ml): <LLOQ
AUC(0–24),C2 ([2]; Visit C2 (day 28), minimum): <LLOQ
C max,E ([2]; Visit E (day 0), first application, maximum): 0.168 ng/mL
AUC(0–24),E ([2]; Visit E (day 0), maximum): 0.378 ng·h/mL
t max,E ([2]; Visit E (day 0), maximum): 3.1 h
AUC(0–24),E ([2]; Visit E (day 0), minimum): <LLOQ
t max,E ([2]; Visit E (day 0), minimum): 2.0 h
C max,E ([2]; Visit E (day 0), minimum, LLOQ E3 10.00 pg/ml): <LLOQ
women with slightly increased serum E3 ([2]; after 4 weeks): 8 women
patients without detectable increase of E3 [2, 5]: 50%
women whose highest detected E3 level was below 20 pg/ml [2, 5]: 25%
women with transient increase in serum E3 ([2]; after the first application (visit E, day 0)): 15 of 16
trough serum E3 levels ([2]; all visits, all except two subjects, LLOQ 10.00 pg/ml): below LLOQ
AUC(0-t) ([2]; female, human, AUC(0–24),C2, Visit C2 (day 28), mean, n=15, not reliable due to late metabolism and insufficient testing points): 0.131 ng·h/mL
AUC(0-t) ([2]; female, human, AUC(0–24),E, Visit E (day 0), GeoMean): 0.154 ng·h/mL
AUC(0-t) ([2]; female, human, AUC(0–24),E, Visit E (day 0), mean, n=16): 0.212 ng·h/mL
AUC(0-t) ([2]; female, human, AUC(0–24),E, Visit E (day 0), median): 0.241 ng·h/mL
Cmax ([2]; female, human, C max,C2, Visit C2 (day 28), GeoMean): 0.011 ng/mL
Cmax ([2]; female, human, C max,C2, Visit C2 (day 28), mean, n=16): 0.0158 ng/mL
Cmax ([2]; female, human, C max,C2, Visit C2 (day 28), median): 0.0091 ng/mL
Cmax ([2]; female, human, C max,E, Visit E (day 0), GeoMean): 0.0882 ng/mL
Cmax ([2]; female, human, C max,E, Visit E (day 0), mean, n=16): 0.104 ng/mL
Cmax ([2]; female, human, C max,E, Visit E (day 0), median): 0.11 ng/mL
concentration at -0.5 h ([2]; female, human, E3 baseline and trough, maximum, visit C1 (week 2)): 0.0492 ng/mL
concentration at -0.5 h ([2]; female, human, E3 baseline and trough, maximum, visit C2 (week 4)): 0.0145 ng/mL
concentration at -0.5 h ([2]; female, human, serum estriol (E3) concentration, Visit C2 (day 28), maximum, −0.5 h (pre-dose)): 0.0145 ng/mL
concentration at -0.5 h ([2]; female, human, serum estriol (E3) concentration, Visit C2 (day 28), mean, −0.5 h (pre-dose)): 0.00091 ng/mL
concentration at -0.5 h ([2]; female, human, serum estriol (E3) concentration, Visit C2 (day 28), median, −0.5 h (pre-dose)): 0 ng/mL
concentration at -0.5 h ([2]; female, human, serum estriol (E3) concentration, Visit C2 (day 28), minimum, −0.5 h (pre-dose)): 0 ng/mL
concentration at -0.5 h ([2]; female, human, serum estriol (E3) concentration, Visit E (day 0), maximum, −0.5 h (pre-dose)): 0 ng/mL
concentration at -0.5 h ([2]; female, human, serum estriol (E3) concentration, Visit E (day 0), mean, −0.5 h (pre-dose)): 0 ng/mL
concentration at -0.5 h ([2]; female, human, serum estriol (E3) concentration, Visit E (day 0), median, −0.5 h (pre-dose)): 0 ng/mL
concentration at -0.5 h ([2]; female, human, serum estriol (E3) concentration, Visit E (day 0), minimum, −0.5 h (pre-dose)): 0 ng/mL
Tmax ([2]; female, human, t max,C2, Visit C2 (day 28), mean, n=8): 7.2 h
Tmax ([2]; female, human, t max,C2, Visit C2 (day 28), median): 7.9 h
Tmax ([2]; female, human, t max,E, Visit E (day 0), mean, n=15): 2.5 h
Tmax ([2]; female, human, t max,E, Visit E (day 0), median): 2.2 h
exposure (AUC0–24) at end of initial therapy compared with study entry ([2]; human, in vivo): significantly lower
concentration at -0.5 h ([2]; human, trough E3 serum concentration, one subject, visit C1): 0.0223 ng/mL
E3 baseline and trough ([2]; maximum, visit C1 (week 2)): 49.20 pg/mL
E3 baseline and trough ([2]; maximum, visit C2 (week 4)): 14.50 pg/mL
E3 baseline and trough ([2]; maximum, visit C3 (week 8)): 0.00 pg/mL
E3 baseline and trough ([2]; maximum, visit C4 (week 12)): 0.00 pg/mL
E3 baseline and trough ([2]; maximum, visit E (day 0, baseline)): 0.00 pg/mL
E3 baseline and trough ([2]; mean (SD), visit C1 (week 2), n=14): 5.11 (14.01)^a pg/ml
E3 baseline and trough ([2]; mean (SD), visit C2 (week 4)): 0.91(3.63) pg/ml
E3 baseline and trough ([2]; mean (SD), visit C3 (week 8)): 0.00 pg/mL
E3 baseline and trough ([2]; mean (SD), visit C4 (week 12)): 0.00 pg/mL
E3 baseline and trough ([2]; mean (SD), visit E (day 0, baseline)): 0.00 pg/mL
E3 baseline and trough ([2]; minimum, visit C1 (week 2)): 0.00 pg/mL
E3 baseline and trough ([2]; minimum, visit C2 (week 4)): 0.00 pg/mL
E3 baseline and trough ([2]; minimum, visit C3 (week 8)): 0.00 pg/mL
E3 baseline and trough ([2]; minimum, visit C4 (week 12)): 0.00 pg/mL
E3 baseline and trough ([2]; minimum, visit E (day 0, baseline)): 0.00 pg/mL
C max at visit C2 compared to visit E ([2]; p < 0.0001): significantly lower
subjects without any quantifiable concentration of E3 ([2]; visit C2 (day 28)): half
time of serum E3 increase post-insertion ([2]; visit C2 (day 28)): 6 to 8 h
time of C max post-insertion ([2]; visit E (day 0), first application): 2 to 3 h
serum E2 or E3 ([3]; vaginal 0.25 mg E3 twice weekly, 12 weeks, no PK values determined): no increase
serum levels of E3 ([3]; vaginal application of conventional 0.50 mg dose of E3, ref [8]–[39]): increased
metabolism into E1 or E2 ([4]; E3 is an end product of estrogen metabolism): cannot be transformed back
metabolic clearance [4]: rapid
vaginal absorption as the vaginal epithelium matures ([4]; within a few days to weeks after start of vaginal treatment): decreases

C[C@]12CC[C@@H]3c4ccc(O)cc4CC[C@H]3[C@@H]1CC[C@@H]2O [E2, estradiol]
nuclear retention time of the receptor complex [1]: > 12 h
effect on BC cells in vitro (BC cells): can stimulate
serum levels of E2 ([3]; vaginal administration of any dose of E2 in AI users, ref [3]–[14], [15]–[18]): increases
effect on vaginal atrophy [3, 6]: efficiently relieved vaginal atrophy
serum levels of E2 and E1 [3, 6]: temporarily raised
